Converted amounts (≈) assume the structure as drawn. “And” between values parts separate entries of the source, which are not always exact repeats. Equal entries are not always repeated.
What was measured:
[1] = tested on: E. coli; test: Checkerboard combination assay with Ciprofloxacin; assay type: cell-based
[2] = tested on: S. epidermidis (MDR00223); test: MIC and MBC by broth microdilution; assay type: cell-based, Staphylococcus epidermidis
[3] = tested on: S. aureus biofilm; test: Staphylococcus biofilm mass reduction; assay type: cell-based; conditions: at their MIC
[4] = In vitro cytotoxicity on normal cell line; assay type: cell-based, green monkey; conditions: green monkey, Vero kidney cells
[5] = tested on: Vero: green monkey kidney; test: In vitro cytotoxicity on normal cell line; assay type: cell-based
[6] = tested on: A. baumannii; test: Single-step resistance selection; assay type: cell-based; conditions: 4 × MIC, 48 h
[7] = tested on: K. pneumoniae; test: Checkerboard combination assay with Ciprofloxacin; assay type: cell-based
[8] = In vitro cytotoxicity on normal cell line; assay type: cell-based, mouse; conditions: mouse, BNL normal liver cells
[9] = tested on: BNL: mouse normal liver cells; test: In vitro cytotoxicity on normal cell line; assay type: cell-based
[10] = tested on: S. aureus (MDR00231); test: MIC and MBC by broth microdilution; assay type: cell-based, Staphylococcus aureus
[11] = tested on: C. albicans100; test: Checkerboard combination assay with Ketoconazole; assay type: cell-based, Candida albicans
[12] = tested on: C. albicans200 (MDR00200); test: Agar well-diffusion antimicrobial sensitivity assay; assay type: cell-based, Candida albicans; conditions: Candida albicans, read-out: Inhibition Zone (IZ)
[13] = tested on: S. aureus (MDR00231); test: as above; assay type: cell-based, Staphylococcus aureus; conditions: Staphylococcus aureus, read-out: Inhibition Zone (IZ)
[14] = In vitro cytotoxicity on normal cell line; assay type: cell-based, rat; conditions: rat, H9C2 heart/myocardium cells
[15] = tested on: H9C2: rat heart/myocardium; test: In vitro cytotoxicity on normal cell line; assay type: cell-based
[16] = tested on: S. epidermidis; test: Checkerboard combination assay with Ciprofloxacin; assay type: cell-based, Staphylococcus epidermidis
[17] = tested on: clinical pathogenic isolates; test: Single-step resistance selection, whole panel; assay type: cell-based; conditions: 4 × MIC
[18] = tested on: C. albicans100 (MDR00100); test: MIC and MFC by broth microdilution; assay type: cell-based, Candida albicans
[19] = tested on: S. epidermidis (MDR00223); test: Agar well-diffusion antimicrobial sensitivity assay; assay type: cell-based, Staphylococcus epidermidis; conditions: Staphylococcus epidermidis, read-out: Inhibition Zone (IZ)
[20] = tested on: B. subtilis; test: Single-step resistance selection; assay type: cell-based; conditions: 4 × MIC, 48 h
[21] = tested on: S. aureus; test: Single-step resistance selection; assay type: cell-based, Staphylococcus aureus; conditions: 4 × MIC, 48 h
[22] = tested on: C. albicans100; test: Single-step resistance selection; assay type: cell-based, Candida albicans; conditions: 4 × MIC, 48 h
[23] = tested on: RBCs; test: Hemolytic assay; assay type: cell-based; conditions: human RBCs; compounds 1.0 mg/mL; Triton X-100 0.1% v/v; 37 °C, 35 min
[24] = tested on: K. pneumoniae; test: Single-step resistance selection; assay type: cell-based; conditions: 4 × MIC, 48 h
[25] = biological target: E. coli DNA gyrase (Escherichia coli, UniProt P0AES4+P0AES6); test: DNA gyrase inhibition; assay type: biochemical
Chain of E. coli DNA gyrase (P0AES4 whole entry, one chain of several): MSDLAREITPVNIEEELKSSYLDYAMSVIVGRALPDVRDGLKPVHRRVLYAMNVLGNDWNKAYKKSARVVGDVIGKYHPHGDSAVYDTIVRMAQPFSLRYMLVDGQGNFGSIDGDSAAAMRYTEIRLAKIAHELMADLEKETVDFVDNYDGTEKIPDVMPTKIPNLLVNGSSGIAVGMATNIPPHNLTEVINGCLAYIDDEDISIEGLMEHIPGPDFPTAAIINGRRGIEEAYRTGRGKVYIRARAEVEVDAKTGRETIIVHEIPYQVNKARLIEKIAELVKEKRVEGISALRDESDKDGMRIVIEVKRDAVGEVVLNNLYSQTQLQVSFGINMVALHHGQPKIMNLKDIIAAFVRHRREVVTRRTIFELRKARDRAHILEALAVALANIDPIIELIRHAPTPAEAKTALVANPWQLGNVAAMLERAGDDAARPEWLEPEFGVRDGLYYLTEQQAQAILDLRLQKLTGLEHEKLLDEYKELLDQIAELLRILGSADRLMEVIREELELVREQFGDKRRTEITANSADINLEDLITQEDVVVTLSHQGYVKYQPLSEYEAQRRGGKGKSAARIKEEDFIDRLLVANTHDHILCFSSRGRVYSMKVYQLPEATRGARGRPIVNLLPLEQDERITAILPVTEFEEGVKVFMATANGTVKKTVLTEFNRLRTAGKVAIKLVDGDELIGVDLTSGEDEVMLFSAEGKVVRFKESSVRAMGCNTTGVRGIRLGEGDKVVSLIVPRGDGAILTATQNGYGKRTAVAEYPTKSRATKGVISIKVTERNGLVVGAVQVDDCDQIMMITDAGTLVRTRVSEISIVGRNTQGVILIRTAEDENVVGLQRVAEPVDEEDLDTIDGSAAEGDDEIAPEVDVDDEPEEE

[26] = tested on: A. baumannii (MDR00521); test: MIC and MBC by broth microdilution; assay type: cell-based
[27] = tested on: C. albicans200; test: Checkerboard combination assay with Ketoconazole; assay type: cell-based, Candida albicans
[28] = tested on: E. coli (MDR00501); test: Agar well-diffusion antimicrobial sensitivity assay; assay type: cell-based; conditions: Escherichia coli, read-out: Inhibition Zone (IZ)
[29] = tested on: C. albicans200; test: Single-step resistance selection; assay type: cell-based, Candida albicans; conditions: 4 × MIC, 48 h
[30] = tested on: S. epidermidis biofilm; test: Staphylococcus biofilm mass reduction; assay type: cell-based; conditions: at their MIC
[31] = tested on: K. pneumoniae (MDR00244); test: MIC and MBC by broth microdilution; assay type: cell-based; conditions: ratio in parentheses
[32] = tested on: S. epidermidis; test: Single-step resistance selection; assay type: cell-based, Staphylococcus epidermidis; conditions: 4 × MIC, 48 h
[33] = tested on: S. aureus; test: Checkerboard combination assay with Ciprofloxacin; assay type: cell-based, Staphylococcus aureus
[34] = biological target: T1, dihydrofolate reductase (DHFR) (Homo sapiens, UniProt P00374); test: DHFR inhibition; assay type: biochemical
T1 sequence (P00374 1-187): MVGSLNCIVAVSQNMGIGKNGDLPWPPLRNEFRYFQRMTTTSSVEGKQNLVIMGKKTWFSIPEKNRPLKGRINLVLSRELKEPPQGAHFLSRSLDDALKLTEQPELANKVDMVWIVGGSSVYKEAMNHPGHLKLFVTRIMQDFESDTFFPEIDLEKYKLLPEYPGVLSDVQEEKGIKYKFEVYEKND

[35] = tested on: B. subtilis (MDR00423); test: MIC and MBC by broth microdilution; assay type: cell-based
[36] = tested on: E. coli (MDR00501); test: MIC and MBC by broth microdilution; assay type: cell-based
[37] = tested on: E. coli; test: Single-step resistance selection; assay type: cell-based; conditions: 4 × MIC, 48 h
[38] = tested on: A. baumannii; test: Checkerboard combination assay with Ciprofloxacin; assay type: cell-based
[39] = tested on: C. albicans200 (MDR00200); test: MIC and MFC by broth microdilution; assay type: cell-based, Candida albicans
[40] = tested on: B. subtilis; test: Checkerboard combination assay with Ciprofloxacin; assay type: cell-based
[41] = tested on: C. albicans100 (MDR00100); test: Agar well-diffusion antimicrobial sensitivity assay; assay type: cell-based, Candida albicans; conditions: Candida albicans, read-out: Inhibition Zone (IZ)

N#CC(=Cc1ccccc1O)C1=NC(=O)C(=Cc2cn(-c3ccccc3)nc2-c2ccccc2)S1 [Compound 5a, 3-(2-Hydroxyphenyl)-2-(5-((1,3-diphenyl-1H-pyrazol-4-yl)methylene)-4-oxo-4,5-dihydro-thiazol-2-yl)acrylonitrile]
combination effect [1]: S (S: synergism) | fractional inhibitory concentration index (FICI) [1]: 0.5 | MBC/MIC ([2]; S. epidermidis, ratio in parentheses): 0.5 | MIC ([2]; Staphylococcus epidermidis, read-out: MIC (mean ± SEM), S. epidermidis, broth microdilution): 0.49 ± 0.4 mg/L (≈ 1.03 µM) | reduction of biofilm formation [3]: 89.1% | IC50 at 72 h [4]: 80.2 ± 1.79 µM | Selectivity index against DHFR ([5]; IC50 of Vero / IC50 of DHFR): 72.28 | Selectivity index against DNA gyrase ([5]; IC50 of Vero / IC50 of DNA gyrase): 3.62 | Single-step resistance frequency (mutation frequency) [6]: 1.80 × 10^–8 | combination effect [7]: S (S: synergism) | fractional inhibitory concentration index (FICI) [7]: 0.25 | IC50 at 72 h [8]: 103 ± 1.44 µM | Selectivity index against DHFR ([9]; IC50 of BNL / IC50 of DHFR): 93.23 | Selectivity index against DNA gyrase ([9]; IC50 of BNL / IC50 of DNA gyrase): 4.67 | MBC/MIC ([10]; S. aureus, ratio in parentheses): 1 | MIC ([10]; Staphylococcus aureus, read-out: MIC (mean ± SEM), S. aureus, broth microdilution): 0.48 ± 0.1 mg/L (≈ 1.01 µM) | combination effect [11]: S (S: synergism) | fractional inhibitory concentration index (FICI) [11]: 0.25 | zone of inhibition at 100000 µg/mL [12]: 30 ± 0.6 mm | zone of inhibition at 100000 µg/mL [13]: 29 ± 0.22 mm | IC50 at 72 h [14]: 99.2 ± 2.29 µM | Selectivity index against DHFR ([15]; IC50 of H9C2 / IC50 of DHFR): 89.37 | Selectivity index against DNA gyrase ([15]; IC50 of H9C2 / IC50 of DNA gyrase): 4.48 | combination effect [16]: S (S: synergism) | fractional inhibitory concentration index (FICI) [16]: 0.5 | mutation frequency, range over panel [17]: 2.21 × 10^–7 to 2.71 × 10^–8 | MIC (mean ± SEM) ([18]; C. albicans100, broth microdilution): 0.43 ± 0.5 mg/L (≈ 0.906 µM) | MFC/MIC ([18]; C. albicans100, ratio in parentheses): 0.5 | MIC ([18]; Candida albicans, read-out: MIC (mean ± SEM), C. albicans100, broth microdilution): 0.43 mg/L (≈ 0.906 µM) | zone of inhibition at 100000 µg/mL [19]: 27 ± 0.24 mm | Single-step resistance frequency (mutation frequency) [20]: 2.93 × 10^–7 | Single-step resistance frequency (mutation frequency) [21]: 3.22 × 10^–7 | Single-step resistance frequency (mutation frequency) [22]: 2.10 × 10^–8 | %lysis of RBCs [23]: 9.67% and 9.67 ± 0.31% | Single-step resistance frequency (mutation frequency) [24]: 1.90 × 10^–8 | IC50 [25]: 22.1 ± 0.3 µM | MIC (mean ± SEM) ([26]; broth microdilution): 0.48 ± 0.5 mg/L (≈ 1.01 µM) | MBC/MIC ([26]; ratio in parentheses): 0.5 | combination effect [27]: S (S: synergism) | fractional inhibitory concentration index (FICI) [27]: 0.5 | zone of inhibition at 100000 µg/mL [28]: 28 ± 0.14 mm | Single-step resistance frequency (mutation frequency) [29]: 4.40 × 10^–7 | reduction of biofilm formation [30]: 79.5% | MBC/MIC [31]: 1 | Single-step resistance frequency (mutation frequency) [32]: 2.71 × 10^–8 | combination effect [33]: S (S: synergism) | fractional inhibitory concentration index (FICI) [33]: 0.5 | IC50 [34]: 1.11 ± 0.15 µM | MBC/MIC ([35]; B. subtilis, ratio in parentheses): 1 | MIC ([35]; Bacillus subtilis, read-out: MIC (mean ± SEM), B. subtilis, broth microdilution): 0.49 ± 0.2 mg/L (≈ 1.03 µM) | MIC (mean ± SEM) ([36]; E. coli, broth microdilution): 0.46 ± 0.3 mg/L (≈ 0.969 µM) | MBC/MIC ([36]; E. coli, ratio in parentheses): 1 | MIC ([36]; Escherichia coli, read-out: MIC (mean ± SEM), E. coli, broth microdilution): 0.46 mg/L (≈ 0.969 µM) | Single-step resistance frequency (mutation frequency) [37]: 2.21 × 10^–7 | combination effect [38]: S (S: synergism) | fractional inhibitory concentration index (FICI) [38]: 0.5 | MIC (mean ± SEM) ([39]; C. albicans200, broth microdilution): 0.24 ± 0.4 mg/L (≈ 0.506 µM) | MFC/MIC ([39]; C. albicans200, ratio in parentheses): 1 | MIC ([39]; Candida albicans, read-out: MIC (mean ± SEM), C. albicans200, broth microdilution): 0.24 mg/L (≈ 0.506 µM) | combination effect [40]: S (S: synergism) | fractional inhibitory concentration index (FICI) [40]: 0.25 | zone of inhibition at 100000 µg/mL [41]: 28 ± 0.4 mm

— publication PMC8851638 (ACS Omega, 2022)
